Counter-ions that a name gives are not always drawn.

The subject of the first assay is Human fibrosarcoma cells (HT-1080 cells). In words: In vitro inhibitory action against ferroptosis (Erastin-induced cell death, Cell Counting Kit-8). The class given is cell-based. The settings on record: Evaluation concentration 30 μmol/L, Erastin 3 μmol/L, 24 hours. The protocol:
The inhibitory action against ferroptosis of the tetrahydroquinoline derivative (I) or a pharmaceutically acceptable salt thereof was evaluated with Human fibrosarcoma cells (HT-1080 cells), by using, as an index, the inhibitory action against the cell death induced by treatment with a ferroptosis inducer, Erastin.
HT-1080 cells (ATCC) were cultured in a mixture (hereinafter referred to as vehicle) composed of DMEM/F12 (Thermo Fisher Scientific, Inc.), a final concentration of 10% fetal bovine serum (Thermo Fisher Scientific, Inc.), and a final concentration of 1% penicillin-streptomycin solution (Nacalai Tesque, Inc.). Cells were seeded into 96-well plates (Corning Inc.) at 5×10^4 cells/well and cultured overnight.
A test compound was dissolved in DMSO, and the resulting solution was diluted in the vehicle to a final concentration of 1% DMSO and then used. […] Twenty-four hours after the addition of Erastin, 5 μL of Cell Counting Kit-8 (Dojindo Laboratories) was added to each well and incubated for 4 hours, and the absorbance at 450 nm was then measured for each well (N=2). The average absorbance value at 450 nm was calculated from the absorbance values of the wells, and the inhibition rate of ferroptosis by the test compound (hereinafter referred to as ferroptosis inhibition rate, %) was then calculated based on Equation 1.
In general terms: Tetrazolium assays rely on reduction of a dye to a coloured formazan, in cell work by metabolically active cells.
Consider “7-fluoro-(1H-pyrazol-4-yl)-1,2,3,4-tetrahydroquinoline [Example 140]”, for which the “Ferroptosis inhibition rate (%)” value worked out at 72.81%.

Tested on in another assay: not listed separately
Put plainly: In vitro radical scavenging action (DPPH method). The conditions noted are these: 1.2-100 μmol/L, 30 minutes at room temperature, absorbance at 517 nm. Here is the method: The radical scavenging action of a test compound can be evaluated using an in vitro test and, for example, by a method (Antioxidants, 2019, vol. 258) using a stable radical, 1,1-diphenyl-2-picrylhydrazil (DPPH).
Radical scavenging action was evaluated using the DPPH method in the compound of Comparative Example 1, which is a tetrahydroquinoxaline derivative, and in the tetrahydroquinoline derivative (I) or a pharmaceutically acceptable salt thereof. The DPPH method was performed using an antioxidant capacity measurement kit (Dojindo Laboratories).
A test compound was dissolved in DMSO, and the resulting solution was then mixed with an assay buffer and a DPPH solution, which are included in the kit, to a total volume of 200 μL to obtain a final concentration of 10% DMSO, and the reaction was allowed to proceed. Wells added with […] ferrostatin-1, a radical scavenger, were grouped as “control,” and wells not added with test compound were grouped as “background”. The test compound was serially diluted 3-fold starting from a maximum concentration of 100 μmol/L, and the diluted test compound (1.2, 3.7, 11.1, 33.3, or 100 μmol/L) was added and allowed to react at room temperature. Thirty minutes after the reaction, the absorbance at 517 nm was measured, and the average absorbance value was calculated (N=2). The radical scavenging action of the test compound (hereinafter referred to as radical scavenging rate, %) was calculated based on Equation 2. The EC50 value of the test compound was calculated from the radical scavenging rate.
A note “no detection of radical scavenging action (N.D.),” is given to compounds with a EC50 of >100 μmol/L.
(In general: The DPPH test is a chemical assay of radical scavenging.)
For `Cl.c1ccc(C2CCc3ccccc3N2)cc1` (stereo not shown) [Example 1, 2-phenyl-1,2,3,4-tetrahydroquinoline hydrochloride], the EC50 was more than 100 µM.
Still for that read-out and setting: the result for `Cc1ccc2c(c1)CCC(c1ccc(S(N)(=O)=O)cc1)N2` (stereo not shown) [Example 119, 4-(6-methyl-1,2,3,4-tetrahydroquinolin-2-yl)benzenesulfonamide] reads more than 100 µM; that for `Cc1ccc2c(c1)CCC(c1ccc(S(N)(=O)=O)cc1)N2` (stereo not shown) [Example 120, 4-(6-methyl-1,2,3,4-tetrahydroquinolin-2-yl)benzenesulfonamide], more than 100 µM; that for `NC(=O)c1ccc(C2CCc3cc(Cl)ccc3N2)cc1` (stereo not shown) [Example 121, 4-(6-chloro-1,2,3,4-tetrahydroquinolin-2-yl)benzamide], more than 100 µM.
As to `NC(=O)c1ccc(C2CCc3cc(Cl)ccc3N2)cc1` (stereo not shown) [Example 122, 4-(6-chloro-1,2,3,4-tetrahydroquinolin-2-yl)benzamide], the EC50 is more than 100 µM.
On the same count and under the same terms, the same measure for `NC(=O)c1ccc(C2CCc3cc(Cl)ccc3N2)cc1` (stereo not shown) [Example 131, 4-(6-chloro-1,2,3,4-tetrahydroquinolin-2-yl)benzamide]: more than 100 µM.
On the same count and under the same terms, the same measure for `NC(=O)c1ccc(C2CCc3cc(F)ccc3N2)cc1` (stereo not shown) [Example 132, 4-(6-fluoro-1,2,3,4-tetrahydroquinolin-2-yl)benzamide]: more than 100 µM.
On the same count and under the same terms, the same measure for `NS(=O)(=O)c1ccc(C2CCc3c(Cl)cccc3N2)cc1` (stereo not shown) [Example 134, 4-(5-chloro-1,2,3,4-tetrahydroquinolin-2-yl)benzenesulfonamide]: more than 100 µM; for `NS(=O)(=O)c1ccc(C2CCc3c(F)cccc3N2)cc1` (stereo not shown) [Example 135, 4-(5-fluoro-1,2,3,4-tetrahydroquinolin-2-yl)benzenesulfonamide]: more than 100 µM.
Turning to `CS(=O)(=O)Nc1ccc(C2CCc3ccccc3N2)cc1` (stereo not shown) [Example 136, N-(4-(1,2,3,4-tetrahydroquinolin-2-yl)phenyl)methanesulfonamide], the EC50 is more than 100 µM.
On to `NC(=O)c1ccc(C2CCc3c(F)cccc3N2)cc1` (stereo not shown) [Example 137, 4-(5-fluoro-1,2,3,4-tetrahydroquinolin-2-yl)benzamide], for which the EC50 was more than 100 µM.
On the same count and under the same terms, the result for `NC(=O)c1ccc(C2CCc3c(Cl)cccc3N2)cc1` (stereo not shown) [Example 138, 4-(5-chloro-1,2,3,4-tetrahydroquinolin-2-yl)benzamide] reads more than 100 µM; that for `O=C(Cc1ccc2c(c1)CCC(c1ccccc1)N2)N1CC(O)C1` (stereo not shown) [Example 143, 1-(3-hydroxyazetidin-1-yl)-2-(2-phenyl-1,2,3,4-tetrahydroquinolin-6-yl)ethan-1-one hydrochloride], more than 100 µM; that for `O=C(Cc1ccc2c(c1)CCC(c1ccccc1)N2)N1CC(O)C1` (stereo not shown) [Example 144, 1-(3-hydroxyazetidin-1-yl)-2-(2-phenyl-1,2,3,4-tetrahydroquinolin-6-yl)ethan-1-one hydrochloride], more than 100 µM.
On the same count and under the same terms, the same measure for `O=C(Cc1ccc2c(c1)CCC(c1ccccc1)N2)N1CCOCC1` (stereo not shown) [Example 145, 1-morpholino-2-(2-phenyl-1,2,3,4-tetrahydroquinolin-6-yl)ethan-1-one]: more than 100 µM; for `CC1(C)CN(C(=O)Cc2ccc3c(c2)CCC(c2ccccc2)N3)C1` (stereo not shown) [Example 146, 1-(3,3-dimethylazetidin-1-yl)-2-(2-phenyl-1,2,3,4-tetrahydroquinolin-6-yl)ethan-1-one]: more than 100 µM.
Still for that read-out and setting: the same measure for `COC1CN(C(=O)Cc2ccc3c(c2)CCC(c2ccccc2)N3)C1` (stereo not shown) [Example 147, 1-(3-methoxyazetidin-1-yl)-2-(2-phenyl-1,2,3,4-tetrahydroquinolin-6-yl)ethan-1-one]: more than 100 µM.
For the molecule `O=C(Cc1ccc2c(c1)CCC(c1ccccc1)N2)NC1COC1` (stereo not shown) [Example 148, N-(oxetan-3-yl)-2-(2-phenyl-1,2,3,4-tetrahydroquinolin-6-yl)acetamide], the EC50 is more than 100 µM.
In turn, `O=C(Cc1ccc2c(c1)CCC(c1ccccc1)N2)N1CC(F)(F)C1` (stereo not shown) [Example 149, 1-(3,3-difluoroazetidin-1-yl)-2-(2-phenyl-1,2,3,4-tetrahydroquinolin-6-yl)ethan-1-one] showed an EC50 of more than 100 µM.
As for `CN(CCO)C(=O)Cc1ccc2c(c1)CCC(c1ccccc1)N2` (stereo not shown) [Example 150, N-(2-hydroxyethyl)-N-methyl-2-(2-phenyl-1,2,3,4-tetrahydroquinolin-6-yl)acetamide], the EC50 is more than 100 µM.
For `O=C(Cc1ccc2c(c1)CCC(c1ccccc1)N2)N1CCC1` (stereo not shown) [Example 151, 1-(azetidin-1-yl)-2-(2-phenyl-1,2,3,4-tetrahydroquinolin-6-yl)ethan-1-one], the EC50 was more than 100 µM.
Same read-out and setting: the same measure for `O=C(Cc1ccc2c(c1)CCC(c1ccccc1)N2)NC1CC1` (stereo not shown) [Example 152, N-cyclopropyl-2-(2-phenyl-1,2,3,4-tetrahydroquinolin-6-yl)acetamide]: more than 100 µM; for `O=C(Cc1ccc2c(c1)CCC(c1ccccc1)N2)NC1CCC1` (stereo not shown) [Example 155, N-cyclobutyl-2-(2-phenyl-1,2,3,4-tetrahydroquinolin-6-yl)acetamide]: more than 100 µM; for `O=C1CN(C(=O)Cc2ccc3c(c2)CCC(c2ccccc2)N3)CCN1` (stereo not shown) [Example 157]: more than 100 µM.
Same read-out and setting: the result for `O=C(Cc1ccc2c(c1)CCC(c1ccccc1)N2)N1CCNCC1` (stereo not shown) [Example 158, 2-(2-phenyl-1,2,3,4-tetrahydroquinolin-6-yl)-1-(piperazin-1-yl)ethan-1-one] reads more than 100 µM.
`O=C(Cc1ccc2c(c1)CCC(c1ccccc1)N2)N1CC(F)(F)C1` (stereo not shown) [Example 160, 1-(3,3-difluoroazetidin-1-yl)-2-(2-phenyl-1,2,3,4-tetrahydroquinolin-6-yl)ethan-1-one] yielded an EC50 of more than 100 µM.
Same read-out and setting: the same measure for `O=C(Cc1ccc2c(c1)CCC(c1ccccc1)N2)N1CC(F)(F)C1` (stereo not shown) [Example 161, 1-(3,3-difluoroazetidin-1-yl)-2-(2-phenyl-1,2,3,4-tetrahydroquinolin-6-yl)ethan-1-one]: more than 100 µM.

A further assay concerns superoxide dismutase 1 (SOD1) G93A transgenic mice. In words: Assessment of motor dysfunction in amyotrophic lateral sclerosis model mouse (hind limb extension test). The format is in vivo. The settings on record: 100 mg/kg orally once daily, five times a week, from 56 days of age for 10 weeks; male SOD1 G93A transgenic mice; n=9. Here is the method: The effect of the tetrahydroquinoline derivative (I) or a pharmaceutically acceptable salt thereof on the onset of a motor dysfunction in superoxide dismutase 1 (SOD1) G93A transgenic mice that are amyotrophic lateral sclerosis model mice was tested. The tetrahydroquinoline derivative (I) or a pharmaceutically acceptable salt thereof was evaluated using the compound of Example 1. The amyotrophic lateral sclerosis model mice used were transgenic mice overexpressing human superoxide dismutase 1 (SOD1) with G93A mutation (Jackson Laboratories #004435). Male transgenic mice and wild-type female C57BL/6J mice from Charles River were mated. The tail tips of the born offspring mice were used for genotyping. The obtained male transgenic mice were used for the evaluation. The test substance (compound of Example 1) was prepared as a suspension with the required concentration (10 mg/mL) using 0.5 w/v % methylcellulose as the vehicle, and was administered repeatedly and orally, once daily, five times a week, at a dosing volume of 10 mL/kg, or 100 mg/kg, starting at 56 days of age and continuing for 10 weeks (50 doses in total) until the mice reached 126 days of age. A group administered repeatedly and orally with the compound of Example 1 was termed the “Example 1” group (n=9). In addition, a group administered with 0.5 w/v % methylcellulose in the same volume, frequency, and method as the compound of Example 1 was termed the “vehicle” group (n=6). Whenever possible, litters were divided into both groups. Starting from the beginning of administration, a hind limb extension test was conducted before each dose to evaluate the motor function. […] The hind limb extension test was performed five times a week.
As for `Cl.c1ccc(C2CCc3ccccc3N2)cc1` (stereo not shown) [Example 1, 2-phenyl-1,2,3,4-tetrahydroquinoline hydrochloride], the “median value of the onset age in days” value is on record as 121.0 days of age.

The assay is the same for the next values; noted with them: 100 mg/kg orally once daily, five times a week, from 56 days of age for 10 weeks; significantly higher than vehicle group.
As to `Cl.c1ccc(C2CCc3ccccc3N2)cc1` (stereo not shown) [Example 1, 2-phenyl-1,2,3,4-tetrahydroquinoline hydrochloride], the “age of onset in days vs vehicle group, log-rank (Mantel-Cox) test p” value is recorded as less than 0.05.

Still in this assay, the particulars now being: compared to the vehicle group.
For `Cl.c1ccc(C2CCc3ccccc3N2)cc1` (stereo not shown) [Example 1, 2-phenyl-1,2,3,4-tetrahydroquinoline hydrochloride], the “effect on onset of motor dysfunction in amyotrophic lateral sclerosis model mice (in words)” value is “delay the onset”.

Broadly, the EC50 is the concentration giving half of the maximal effect. Lower therefore signals a more potent agent.
